Data reported in patent publication US20220315621A1, “COMPOSITIONS AND METHODS FOR TREATING CNS DISORDERS” (priority 2017, published 2022).

Target: GABAA receptor (rat brain cortical membranes, [35S]-TBPS binding)
Settings: Table I-4; rat brain cortical membranes, 3 nM [35S]-TBPS, in the presence of 5 mM GABA

Row | SMILES | IC50
1 | C[C@@]1(O)CC[C@H]2[C@H](CC[C@@H]3[C@@H]2CC[C@]2(C)C[C@@H](C(=O)Cn4cc(C#N)cn4)CC[C@@H]32)C1 [I-R17, 1-(2-((2S,4aS,4bR,6aR,8R,10aS,10bR,12aR)-8-hydroxy-8,12a-dimethyloctadecahydrochrysen-2-yl)-2-oxoethyl)-1H-pyrazole-4-carbonitrile] | 1 to 10 µM
2 | CC(=O)[C@@H]1CCC[C@H]2[C@@H]3CC[C@@H]4C[C@](C)(O)CC[C@@H]4[C@H]3CC[C@]12C [I-D7a, 1-((1R,4aS,4bR,6aR,8R,10aS,10bR,12aS)-8-hydroxy-8,12a-dimethyloctadecahydrochrysen-1-yl)ethan-1-one] | 0.1 to 1 µM
3 | CC(=O)[C@H]1CC[C@H]2[C@@H]3CC[C@@H]4C[C@](C)(O)CC[C@@H]4[C@H]3CC[C@]2(C)C1 [I-R14, 1-((2S,4aS,4bR,6aR,8R,10aS,10bR,12aR)-8-hydroxy-8,12a-dimethyloctadecahydrochrysen-2-yl)ethan-1-one] | 0.1 to 1 µM
4 | CN(C[C@H]1CCC[C@H]2[C@@H]3CC[C@@H]4C[C@](C)(O)CC[C@@H]4[C@H]3CC[C@]12C)C(=O)c1ccccc1 [I-C6, N-(((1S,4aS,4bR,6aR,8R,10aS,10bR,12aS)-8-hydroxy-8,12a-dimethyloctadecahydrochrysen-1-yl)methyl)-N-methylbenzamide] | 0.1 to 1 µM
5 | CCN(CC)C(=O)[C@H]1CCC[C@H]2[C@@H]3CC[C@@H]4C[C@](C)(O)CC[C@@H]4[C@H]3CC[C@]12C [Compound I-16, (1S,4aS,4bR,6aR,8R,10aS,10bR,12aS)-N,N-diethyl-8-hydroxy-8,12a-dimethyloctadecahydrochrysene-1-carboxamide] | 1 to 10 µM
6 | Cc1nnn(CC(=O)[C@H]2CCC[C@H]3[C@@H]4CC[C@@H]5C[C@](C)(O)CC[C@]5(C)[C@H]4CC[C@]23C)n1 [Compound I-20, 1-((1S,4aS,4bR,6aR,8R,10aS,10bS,12aS)-8-hydroxy-8,10a,12a-trimethyloctadecahydrochrysen-1-yl)-2-(5-methyl-2H-tetrazol-2-yl)ethan-1-one] | 0.1 to 1 µM
7 | C[C@@]1(O)CC[C@H]2[C@H](CC[C@@H]3[C@@H]2CC[C@]2(C)[C@@H](Nc4cccc(C#N)c4)CCC[C@@H]32)C1 [Compound I-10, 3-(((1S,4aS,4bR,6aR,8R,10aS,10bR,12aS)-8-hydroxy-8,12a-dimethyloctadecahydrochrysen-1-yl)amino)benzonitrile] | 0.01 to 0.1 µM
8 | C[C@]12CC[C@H]3[C@@H](CC[C@@H]4C[C@H](O)CC[C@@H]43)[C@@H]1CC[C@H](C(=O)Nc1ccccc1)C2 (single isomer, unassigned) [I-R24] | 1 to 10 µM
9 | COC[C@@]1(O)CC[C@H]2[C@H](CC[C@@H]3[C@@H]2CC[C@]2(C)C(=O)[C@H](C)CC[C@@H]32)C1 [Compound I-53, (2R,4aS,4bR,6aR,8R,10aS,10bR,12aS)-8-hydroxy-8-(methoxymethyl)-2,12a-dimethylhexadecahydrochrysen-1(2H)-one] | 1 to 10 µM
10 | C[C@@]1(O)CC[C@H]2[C@H](CC[C@@H]3[C@@H]2CC[C@]2(C)[C@@H](Nc4ccc(Cl)cc4)CCC[C@@H]32)C1 [Compound I-8, (2R,4aS,4bR,6aS,7S,10aS,10bR,12aR)-7-((4-chlorophenyl)amino)-2,6a-dimethyloctadecahydrochrysen-2-ol] | 0.01 to 0.1 µM

Same assay, conditions: Table I-5; rat brain cortical membranes, 3 nM [35S]-TBPS, in the presence of 5 mM GABA

Row | SMILES | IC50
11 | C[C@@]1(O)CC[C@H]2[C@H](CC[C@@H]3[C@@H]2CC[C@]2(C)[C@@H](C(=O)Nc4ccccc4)C[C@@H]32)C1 [I-AA6, (1S,2aS,2bR,4aR,6R,8aS,8bR,10aS)-6-hydroxy-6,10a-dimethyl-N-phenylhexadecahydrocyclobuta[a]phenanthrene-1-carboxamide] | 1 to 10 µM
12 | COC[C@@]1(O)CC[C@H]2[C@H](CC[C@@H]3[C@@H]2CC[C@]2(C)[C@@H](C(=O)Cn4cc(C#N)cn4)C[C@@H]32)C1 [I-AC14, 1-(2-((1S,2aS,2bR,4aR,6R,8aS,8bR,10aS)-6-hydroxy-6-(methoxymethyl)-10a-methylhexadecahydrocyclobuta[a]phenanthren-1-yl)-2-oxoethyl)-1H-pyrazole-4-carbonitrile] | 0.1 to 1 µM
13 | CC(=O)[C@H]1C[C@H]2[C@@H]3CC[C@@H]4C[C@](C)(O)CC[C@@H]4[C@H]3CC[C@]12C [I-AA8, 1-((1S,2aS,2bR,4aR,6R,8aS,8bR,10aS)-6-hydroxy-6,10a-dimethylhexadecahydrocyclobuta[a]phenanthren-1-yl)ethan-1-one] | 0.1 to 1 µM
14 | CC(=O)[C@@H]1C[C@H]2[C@@H]3CC[C@H]4C[C@](C)(O)CC[C@@H]4[C@H]3CC[C@]12C [I-AD8a, 1-((1R,2aS,2bR,4aS,6R,8aS,8bR,10aS)-6-hydroxy-6,10a-dimethylhexadecahydrocyclobuta[a]phenanthren-1-yl)ethan-1-one] | 1 to 10 µM
15 | COC[C@@H]1C[C@H]2[C@@H]3CC[C@@H]4C[C@](C)(O)CC[C@@H]4[C@H]3CC[C@]12C [Compound I-118, (1R,2aS,2bR,4aR,6R,8aS,8bR,10aS)-1-(methoxymethyl)-6,10a-dimethylhexadecahydrocyclobuta[a]phenanthren-6-ol] | 1 to 10 µM

Same assay, conditions: Table I-6; rat brain cortical membranes, 3 nM [35S]-TBPS, in the presence of 5 mM GABA

Row | SMILES | IC50
16 | C[C@@]1(O)CC[C@H]2[C@H](CC[C@@H]3[C@@H]2CC[C@]2(C)[C@H](C#N)CCCC[C@@H]32)C1 [I-BA16a, (2R,4aS,4bR,6aS,7R,11aS,11bR,13aR)-2-hydroxy-2,6a-dimethyloctadecahydro-1H-cyclohepta[a]phenanthrene-7-carbonitrile] | 1 to 10 µM
17 | C[C@@]1(O)CC[C@H]2[C@H](CC[C@@H]3[C@@H]2CC[C@]2(C)[C@H](CO)CCCC[C@@H]32)C1 [I-BA5a, (2R,4aS,4bR,6aS,7R,11aS,11bR,13aR)-7-(hydroxymethyl)-2,6a-dimethyloctadecahydro-1H-cyclohepta[a]phenanthren-2-ol] | 1 to 10 µM
18 | C[C@@]1(O)CC[C@H]2[C@H](CC[C@@H]3[C@@H]2CC[C@]2(C)[C@@H](C(=O)Nc4ccccc4)CCCC[C@@H]32)C1 [I-BA17, (2R,4aS,4bR,6aS,7S,11aS,11bR,13aR)-2-hydroxy-2,6a-dimethyl-N-phenyloctadecahydro-1H-cyclohepta[a]phenanthrene-7-carboxamide] | 0.01 to 0.1 µM
19 | C[C@@]1(O)CC[C@H]2[C@H](CC[C@@H]3[C@@H]2CC[C@]2(C)C[C@H](C(=O)Cn4cc(C#N)cn4)CCC[C@@H]32)C1 [I-BC16a, 1-(2-((2R,4aS,4bR,6aR,8R,11aS,11bR,13aR)-2-hydroxy-2,6a-dimethyloctadecahydro-1H-cyclohepta[a]phenanthren-8-yl)-2-oxoethyl)-1H-pyrazole-4-carbonitrile] | 0.1 to 1 µM
20 | CC(=O)[C@@H]1CCC[C@H]2[C@@H]3CC[C@@H]4C[C@](C)(O)CC[C@@H]4[C@H]3CC[C@]2(C)C1 [I-BC14b] | 1 to 10 µM
21 | COC[C@@H]1CCCC[C@H]2[C@@H]3CC[C@@H]4C[C@](C)(O)CC[C@@H]4[C@H]3CC[C@]12C [I-BA6a, (2R,4aS,4bR,6aS,7R,11aS,11bR,13aR)-7-(methoxymethyl)-2,6a-dimethyloctadecahydro-1H-cyclohepta[a]phenanthren-2-ol] | 1 to 10 µM
